Peptide text beside a SMILES is read from it.
System: Botrytis cinerea (B05.10)
Experiment: Resazurin antifungal assay of 23 alpha-factor peptides (dimers, hybrids) towards Botrytis (Example 15, Table 6)
Format: cell-based
Details: resazurin assay, % inhibition of fungal growth, Botrytis cinerea B05.10; for Inhibition at 2.5 μM: peptide 2.5 μM; for Inhibition at 5 μM: peptide 5 μM; for Inhibition at 10 μM: peptide 10 μM; for Inhibition at 20 μM: peptide 20 μM; for Inhibition at 50 μM: peptide 50 μM
Method: The antifungal activity of […] alpha-factor peptide variants towards Botrytis was tested. Experimental design:
Peptides corresponding to SEQ ID NO: 261-264 and 401-420 were chemically synthesized using the solid-phase synthesis method and resuspended in water to a stock solution of 1 mM. The stock solution was aliquoted in cryovials and stored at −80° C.
The Botrytis cinerea culture (B05.10) isolate was acquired from the Centraalbureau voor Schimmelcultures, the Netherlands. The Botrytis fungus was propagated on 0.5% V8 agar plates (200 ml V8 Juice, 3 g CaCO3, 15 g agar, 800-ml millipore water) at 20° C., in a 12 h photoperiod for 21 days.
Fungal conidia were harvested by scraping a Botrytis plate flooded with 1 ml water with 0.1% Tween 80 solution. Conidia were then collected in a 50 ml falcon tube by passing the solution through a 40 micron filter. The solution was then centrifuged at 6000 rpm and the pellet was resuspended in 1 ml of 20% glycerol. The conidia concentration of the resulting solution was counted using a hemocytometer. The stock was diluted to […] using 20% glycerol and frozen in 100 μl aliquots in −80° C. until further use.
Peptides were tested for activity against Botrytis, using the resazurin assay. For this, fungal stock conidia was first diluted to 5000 conidia/well. 50 μl of the spore suspension was added to each well of the sterile 96-well clear bottom testing plate and mixed with 50 μl of peptide solutions to a final concentration of 100, 50, 20, 10, 5 and 2.5 μM. The plate was incubated for 24 h at 20° C. After 24 h, 10 μl of resazurin dye was added to the microtiter plate and incubated again for […]. Fluorescence was measured at 570/620 nm after 4 h of incubation with resazurin.
Growth inhibition was calculated by subtracting the fluorescence values of conidia only wells from sample wells and depicted as % inhibition of fungal growth. Four technical replicates were used for all treatments.

Row | Compound | Inhibition at 2.5 μM [%] | Inhibition at 5 μM [%] | Inhibition at 10 μM [%] | Inhibition at 20 μM [%] | Inhibition at 50 μM [%]
1 | CSCC[C@H](NC(=O)[C@@H]1CCCN1C(=O)[C@H](CCC(N)=O)NC(=O)CNC(=O)[C@H](C)NC(=O)[C@H](CCCNC(=N)N)NC(=O)[C@H](CC(C)C)NC(=O)[C@H](CCCNC(=N)N)NC(=O)CNC(=O)[C@H](Cc1c[nH]c2ccccc12)NC(=O)[C@H](Cc1c[nH]cn1)NC(=O)[C@@H](N)CCCCN)C(=O)N[C@@H](Cc1ccc(O)cc1)C(=O)NCC(=O)NCC(=O)NCC(=O)NCC(=O)N[C@@H](Cc1ccc(O)cc1)C(=O)N[C@@H](CCSC)C(=O)N1CCC[C@H]1C(=O)N[C@@H](CCC(N)=O)C(=O)NCC(=O)N[C@@H](C)C(=O)N[C@@H](CCCNC(=N)N)C(=O)N[C@@H](CC(C)C)C(=O)N[C@@H](CCCNC(=N)N)C(=O)NCC(=O)N[C@@H](Cc1c[nH]c2ccccc12)C(=O)N[C@@H](Cc1c[nH]cn1)C(=O)N[C@@H](CCCCN)C(=O)O [compound 264] (H-KHWGRLRAGQPMYGGGGYMPQGARLRGWHK-OH; N-terminus and C-terminus assumed) | <90 | 96.2 | 100 | 100 | 100
2 | CC[C@H](C)[C@H](NC(=O)[C@H](Cc1c[nH]cn1)NC(=O)[C@@H](N)CCCCN)C(=O)N[C@@H](CC(C)C)C(=O)N[C@@H](CCCCN)C(=O)N[C@@H](Cc1ccccc1)C(=O)N[C@@H](CCCCN)C(=O)N1CCC[C@H]1C(=O)NCC(=O)N[C@@H](CCC(N)=O)C(=O)N1CCC[C@H]1C(=O)N[C@@H](CCSC)C(=O)N[C@@H](Cc1ccc(O)cc1)C(=O)O [compound 402] (H-KHILKFKPGQPMY-OH; N-terminus and C-terminus assumed) | <90 | <90 | 96.2 | 100 | 100
3 | CSCC[C@H](NC(=O)[C@@H]1CCCN1C(=O)[C@H](CCC(N)=O)NC(=O)CNC(=O)[C@@H]1CCCN1C(=O)[C@H](CCCCN)NC(=O)[C@H](Cc1ccccc1)NC(=O)[C@H](CCCNC(=N)N)NC(=O)[C@H](CC(C)C)NC(=O)[C@H](Cc1ccc(O)cc1)NC(=O)[C@H](Cc1c[nH]cn1)NC(=O)[C@@H](N)CCCCN)C(=O)N[C@@H](Cc1ccc(O)cc1)C(=O)O [compound 403] (H-KHYLRFKPGQPMY-OH; N-terminus and C-terminus assumed) | <90 | <90 | 96.0 | 100 | 100
4 | CSCC[C@H](NC(=O)[C@@H]1CCCN1C(=O)[C@H](CCC(N)=O)NC(=O)CNC(=O)[C@@H]1CCCN1C(=O)[C@H](Cc1c[nH]c2ccccc12)NC(=O)[C@H](CC(C)C)NC(=O)[C@H](CCCNC(=N)N)NC(=O)[C@H](CC(C)C)NC(=O)[C@H](CO)NC(=O)[C@H](Cc1c[nH]cn1)NC(=O)[C@@H](N)CCCCN)C(=O)N[C@@H](Cc1ccc(O)cc1)C(=O)O [compound 404] (H-KHSLRLWPGQPMY-OH; N-terminus and C-terminus assumed) |  |  | <90 | <90 | 100
5 | CSCC[C@H](NC(=O)[C@@H]1CCCN1C(=O)[C@H](CCC(N)=O)NC(=O)CNC(=O)[C@@H]1CCCN1C(=O)[C@H](Cc1ccccc1)NC(=O)[C@H](CC(C)C)NC(=O)[C@@H](NC(=O)[C@H](CC(C)C)NC(=O)[C@H](Cc1c[nH]c2ccccc12)NC(=O)[C@H](Cc1c[nH]cn1)NC(=O)[C@@H](N)CCCCN)[C@@H](C)O)C(=O)N[C@@H](Cc1ccc(O)cc1)C(=O)O [compound 405] (H-KHWLTLFPGQPMY-OH; N-terminus and C-terminus assumed) |  |  |  |  | <90
6 | CSCC[C@H](NC(=O)[C@@H]1CCCN1C(=O)[C@H](CCC(N)=O)NC(=O)CNC(=O)[C@H](CCCNC(=N)N)NC(=O)[C@H](CC(=O)O)NC(=O)[C@H](CC(C)C)NC(=O)[C@H](CCC(N)=O)NC(=O)[C@H](CC(C)C)NC(=O)[C@H](Cc1c[nH]c2ccccc12)NC(=O)[C@H](CCC(N)=O)NC(=O)[C@@H](N)Cc1c[nH]c2ccccc12)C(=O)N[C@@H](Cc1ccc(O)cc1)C(=O)O [compound 406] (H-WQWLQLDRGQPMY-OH; N-terminus and C-terminus assumed) |  |  |  |  | <90

From US20250382332A1, “NOVEL ALPHA-FACTOR BASED PEPTIDES WITH ANTIFUNGAL ACTIVITY” (INVAIO SCIENCES, INC., priority 2024, published 2025)
